Assay results reported in patent US12302841B2, “Soybean variety comprising high content of epicatechin” (AMOREPACIFIC CORPORATION, priority 2020, dated 2025).

Columns and labels:
[1] = system: collagenase (MMP-1); assay: Collagenase (MMP-1) expression inhibition test in human fibroblasts; type: cell-based; settings: 10 μg/mL in serum-free DMEM, 24 hours, relative to untreated group
Description: In order to investigate the antiaging activity of the extract of the Aritaunkong bred in Example 1, the collagenase (MMP-1) expression-inhibiting effect of each of the soybean extracts prepared in Preparation Example was assessed. Specifically, after placing human fibroblasts (Cascade Biologics, Portland, OR, USA) on a 96-well microtiter plate containing DMEM (Dulbecco's modified Eagle's medium) supplemented with 2.5 wt % of fetal bovine serum at 5,000 cells/well, the cells were cultured until ˜90% confluency. Then, after culturing the cells in serum-free DMEM for 24 hours and treating with each of the three soybean extracts of Preparation Example or EGCG (Sigma-Aldrich) as a positive control group, dissolved in serum-free DMEM to 10 μg/mL, for 24 hours, the cell culture was collected. Subsequently, the degree of collagenase production in the collected cell culture was measured using a collagenase measurement kit (Amersham Pharmacia, USA). First, after placing the collected cell culture on a 96-well plate on which a primary collagenase antibody is coated uniformly, antigen-antibody reaction was conducted for 3 hours in a constant-temperature bath (36° C.). […] Collagenase expression inhibition (%)=(1−absorbance of substance-treated cell group/absorbance of control group)×100 [Equation 1]

[2] = Antioxidant activity test through DPPH reduction (DPPH radical-scavenging ability); type: biochemical; settings: 100 μM DPPH in ethanol, 37° C. for 30 minutes, absorbance at 540 nm; sample concentration at which absorbance decreased by 50%
Description: In order to investigate the antioxidant activity of the extract of the Aritaunkong bred in Example 1, the DPPH (1,1-diphenyl-2-picrylhydrazyl) oxidation-inhibiting effect of each soybean extract prepared in Preparation Example was compared by monitoring the change in absorbance occurring as a result of reduction of DPPH. Specifically, after preparing 190 μL of a 100 μM (in ethanol) DPPH solution and the soybean extract of Preparation Example and the synthetic antioxidant Trolox (positive control group) to a concentration of 10,000 ppm, they were diluted to final concentrations of 500 ppm, 250 ppm, 125 ppm, 62.5 ppm, 31.25 ppm and 15.63 ppm. After preparing […] reaction solutions by mixing them, absorbance was measured at 540 nm after incubation at 37° C. for 30 minutes. The IC50 indicates the sample concentration when the absorbance was decreased by 50% due to the addition of the sample.

Collagenase expression inhibition (%) [1] [%]	DPPH radical-scavenging ability (IC50) [2] [ppm]	SMILES
60.8	–	O=C(O[C@@H]1Cc2c(O)cc(O)cc2O[C@@H]1c1cc(O)c(O)c(O)c1)c1cc(O)c(O)c(O)c1 [EGCG]
–	53.2	Cc1c(C)c2c(c(C)c1O)CCC(C)(C(=O)O)O2 (centres unmarked) [Trolox]
